Measurements from patent US20220081444A1, “6,7-DIHYDRO-4H-PYRAZOLO[1,5-A]PYRAZINE INDOLE-2-CARBOXAMIDES ACTIVE AGAINST THE HEPATITIS B VIRUS (HBV)” (AiCuris GmbH & Co. KG, priority 2018, published 2022).
Where a name gives a salt, the structure may show the parent alone. Read-outs that look alike come from different tables or passages of the source.

Columns and labels:
HBV = settings: read-out: Cell Activity (EC50)
HepAD38 cells = test: Cell viability assay (AlamarBlue cytotoxicity); settings: HepAD38 cells in the presence of 0.3 μg/ml tetracycline, six days incubation
in vitro = settings: human
[1] = Hepatitis B virus, HePAD38, 144 h

Molecule	EC50 (HBV; [1])	also measured
3-yl)methyl]-4H,5H, 6H,7H-pyrazolo[1,5-a]pyrazin-2-amine [Example 25]	–	EC50 (HBV; HBV DNA in HepAD38 supernatant at day 6, qPCR): < 1 µM; CC50 (HepAD38 cells): > 10 µM
CCc1cc(F)cc2[nH]c(C(=O)N3CCn4nc(NCC5CCOC5)cc4C3)cc12 (stereo not drawn) [Example 29, 5-(4-ethyl-6-fluoro-1H-indole-2-carbonyl)-N-[(oxolan-3-yl)methyl]-4H,5H,6H,7H-pyrazolo[1,5-a]pyrazin-2-amine]	< 1 µM	CC50 (in vitro): > 10 µM
CC1(S(=O)(=O)Nc2cc3n(n2)CCN(C(=O)c2cc4ccccc4[nH]2)C3)CC1 [Example 44, N-[5-(1H-indole-2-carbonyl)-4H,5H,6H,7H-pyrazolo[1,5-a]pyrazin-2-yl]-1-methylcyclopropane-1-sulfonamide]	< 1 µM	CC50 (in vitro): > 10 µM
O=C(c1cc2ccccc2[nH]1)N1CCn2nc(NCC3(CO)CCC3)cc2C1 [Example 79, [1-({[5-(1H-indole-2-carbonyl)-4H,5H,6H,7H-pyrazolo[1,5-a]pyrazin-2-yl]amino}methyl)cyclobutyl]methanol]	< 1 µM	–
COC1CCC(Nc2cc3n(n2)CCN(C(=O)c2cc4ccccc4[nH]2)C3)CC1 (stereo not drawn) [Example 80, 5-(1H-indole-2-carbonyl)-N-(4-methoxycyclohexyl)-4H,5H,6H,7H-pyrazolo[1,5-a]pyrazin-2-amine]	< 1 µM	–
CN1CCC(C(=O)Nc2cc3n(n2)CCN(C(=O)c2cc4ccccc4[nH]2)C3)CC1C(F)(F)F (stereo not drawn) [Example 81, N-[5-(1H-indole-2-carbonyl)-4H,5H,6H,7H-pyrazolo[1,5-a]pyrazin-2-yl]-1-methyl-2-(trifluoromethyl)piperidine-4-carboxamide]	< 1 µM	–
O=C(Nc1cc2n(n1)CCN(C(=O)c1cc3ccccc3[nH]1)C2)C1CC2CC1CN2 (stereo not drawn) [Example 82, N-[5-(1H-indole-2-carbonyl)-4H,5H,6H,7H-pyrazolo[1,5-a]pyrazin-2-yl]-2-azabicyclo[2.2.1]heptane-5-carboxamide dihydrochloride]	1 to 10 µM	CC50 (in vitro): > 10 µM
O=C(c1cc2ccccc2[nH]1)N1CCn2nc(NCC3(O)CC(F)(F)C3)cc2C1 [Example 83, 3,3-difluoro-1-({[5-(1H-indole-2-carbonyl)-4H,5H,6H,7H-pyrazolo[1,5-a]pyrazin-2-yl]amino}methyl)cyclobutan-1-ol]	< 1 µM	–
O=C(c1cc2ccccc2[nH]1)N1CCn2nc(NC3(c4ccccc4)CC3)cc2C1 [Example 84, 5-(1H-indole-2-carbonyl)-N-(1-phenylcyclopropyl)-4H,5H,6H,7H-pyrazolo[1,5-a]pyrazin-2-amine]	< 1 µM	–
O=C(Nc1cc2n(n1)CCN(C(=O)c1cc3ccccc3[nH]1)C2)C1CCNCC1F (stereo not drawn) [Example 85, 3-fluoro-N-[5-(1H-indole-2-carbonyl)-4H,5H,6H,7H-pyrazolo[1,5-a]pyrazin-2-yl]piperidine-4-carboxamide Trihydrochloride]	< 1 µM	–
O=C(Nc1cc2n(n1)CCN(C(=O)c1cc3ccccc3[nH]1)C2)[C@H]1CCNC[C@@H]1F [Example 86, (3R,4R)-3-fluoro-N-[5-(1H-indole-2-carbonyl)-4H,5H,6H,7H-pyrazolo[1,5-a]pyrazin-2-yl]piperidine-4-carboxamide dihydrochloride]	< 1 µM	CC50 (in vitro): > 10 µM
CN1CCC(C(=O)Nc2cc3n(n2)CCN(C(=O)c2cc4ccccc4[nH]2)C3)C(F)(F)C1 (stereo not drawn) [Example 87, 3,3-difluoro-N-[5-(1H-indole-2-carbonyl)-4H,5H,6H,7H-pyrazolo[1,5-a]pyrazin-2-yl]-1-methylpiperidine-4-carboxamide]	< 1 µM	–
CN1CCC(C(=O)Nc2cc3n(n2)CCN(C(=O)c2cc4ccccc4[nH]2)C3)C(F)C1 (stereo not drawn) [Example 88, 3-fluoro-N-[5-(1H-indole-2-carbonyl)-4H,5H,6H,7H-pyrazolo[1,5-a]pyrazin-2-yl]-1-methylpiperidine-4-carboxamide]	< 1 µM	–
CN1CC[C@H](C(=O)Nc2cc3n(n2)CCN(C(=O)c2cc4ccccc4[nH]2)C3)[C@@H](F)C1 [Example 89, (3R,4R)-3-fluoro-N-[5-(1H-indole-2-carbonyl)-4H,5H,6H,7H-pyrazolo[1,5-a]pyrazin-2-yl]-1-methylpiperidine-4-carboxamide]	< 1 µM	–
O=C(c1cc2ccccc2[nH]1)N1CCn2nc(NC3(CO)CCC3)cc2C1 [Example 90, (1-{[5-(1H-indole-2-carbonyl)-4H,5H,6H,7H-pyrazolo[1,5-a]pyrazin-2-yl]amino}cyclobutyl)methanol]	< 1 µM	–
O=C(c1cc2ccccc2[nH]1)N1CCn2nc(N[C@H]3C[C@@H](O)C3)cc2C1 [Example 91, (1s,3s)-3-{[5-(1H-indole-2-carbonyl)-4H,5H,6H,7H-pyrazolo[1,5-a]pyrazin-2-yl]amino}cyclobutan-1-ol]	< 1 µM	–
O=C(c1cc2ccccc2[nH]1)N1CCn2nc(NC3(CO)CC3)cc2C1 [Example 92, (1-{[5-(1H-indole-2-carbonyl)-4H,5H,6H,7H-pyrazolo[1,5-a]pyrazin-2-yl]amino}cyclopropyl)methanol]	< 1 µM	–
CCc1cccc2[nH]c(C(=O)N3CCn4nc(NCC5(O)CCC5)cc4C3)cc12 [Example 93, 1-({[5-(4-ethyl-1H-indole-2-carbonyl)-4H,5H,6H,7H-pyrazolo[1,5-a]pyrazin-2-yl]amino}methyl)cyclobutan-1-ol]	< 1 µM	–
COC1(CNc2cc3n(n2)CCN(C(=O)c2cc4ccccc4[nH]2)C3)CCOC1 (stereo not drawn) [Example 94, 5-(1H-indole-2-carbonyl)-N-[(3-methoxyoxolan-3-yl)methyl]-4H,5H,6H,7H-pyrazolo[1,5-a]pyrazin-2-amine]	< 1 µM	–
